According to ChEMBL document CHEMBL3244287, “Adrenergic agents. 4. Substituted phenoxypropanolamine derivatives as potential beta-adrenergic agonists” (J Med Chem, 1977):
The source made the active and inactive calls. The rule behind the calls is not given here.

Assays:
[1] = biological target: Beta-1 adrenergic receptor (Cavia porcellus) (UniProt B0FL73); assay: Antagonist activity at beta-1 adrenergic receptor in guinea pig atria assessed as inhibition of isoproterenol-induced increase in rate of contraction of spontaneously beating right atria at 1 x 10^-3 M
[2] = biological target: Beta-1 adrenergic receptor (Cavia porcellus) (UniProt B0FL73)
[3] = biological target: Beta-2 adrenergic receptor (Cavia porcellus) (UniProt Q8K4Z4); conditions: Trachea
[4] = biological target: Beta-2 adrenergic receptor (Cavia porcellus) (UniProt Q8K4Z4); assay: Agonist activity at beta-2 adrenergic receptor in guinea pig trachea assessed as relaxation of spontaneously contracted muscle at 4.8 x 10^-5 M; parameters: scale not given: the % may be the effect or the level left
[5] = biological target: Beta-1 adrenergic receptor (Cavia porcellus) (UniProt B0FL73); assay: Agonist activity at beta-1 adrenergic receptor in guinea pig atria assessed as increase in rate of contraction of spontaneously beating right atria at 4.8 x 10^-5 M
[6] = biological target: Beta-1 adrenergic receptor (Cavia porcellus) (UniProt B0FL73); assay: Antagonist activity at beta-1 adrenergic receptor in guinea pig atria assessed as inhibition of isoproterenol-induced increase in rate of contraction of spontaneously beating right atria at 8.4 x 10^-5 M
Cavia porcellus = species: Cavia porcellus; assay: Selectivity ratio of ED50 for beta-2 adrenergic receptor in guinea pig trachea over ED50 for beta-1 adrenergic receptor in guinea pig atria
[7] = biological target: Beta-1 adrenergic receptor (Cavia porcellus) (UniProt B0FL73); assay: Antagonist activity at beta-1 adrenergic receptor in guinea pig atria assessed as inhibition of isoproterenol-induced increase in rate of contraction of spontaneously beating right atria at 3 x 10^-7 M
[8] = biological target: Beta-2 adrenergic receptor (Cavia porcellus) (UniProt Q8K4Z4); assay: Intrinsic activity at beta-2 adrenergic receptor in guinea pig trachea assessed as relaxation of spontaneously contracted muscle relative to papaverine
[9] = biological target: Beta-1 adrenergic receptor (Cavia porcellus) (UniProt B0FL73); assay: Agonist activity at beta-1 adrenergic receptor in guinea pig atria assessed as increase in rate of contraction of spontaneously beating right atria at 9 x 10^-5 M
[10] = biological target: Beta-1 adrenergic receptor (Cavia porcellus) (UniProt B0FL73); assay: Antagonist activity at beta-1 adrenergic receptor in guinea pig atria assessed as inhibition of isoproterenol-induced increase in rate of contraction of spontaneously beating right atria at 6.3 x 10^-5 M
[11] = test system: Beta-2 adrenergic receptor (Cavia porcellus); assay: Ratio of isoproterenol ED50 to compound ED50 for beta-2 adrenergic receptor in guinea pig trachea assessed as relaxation of spontaneously contracted muscle
Canis familiaris [12] = assay: Reduction of diastolic blood pressure in iv dosed anesthetized dog in presence of 2 mg/kg of propranolol, iv; format: functional, organism-based; parameters: dose 2 mg/kg; conditions: Canis lupus familiaris; Artery
Canis familiaris [13] = assay: Reduction of heart rate in iv dosed anesthetized dog in presence of 2 mg/kg of propranolol, iv; format: functional, organism-based; parameters: dose 2 mg/kg; conditions: Canis lupus familiaris
Canis familiaris [14] = assay: Reduction of diastolic blood pressure in iv dosed anesthetized dog; format: functional, organism-based; conditions: Canis lupus familiaris; Artery
[15] = biological target: Beta-1 adrenergic receptor (Cavia porcellus) (UniProt B0FL73); assay: Ratio of isoproterenol ED50 to compound ED50 for beta-1 adrenergic receptor in guinea pig atria assessed as increase in rate of contraction of spontaneously beating right atria
[16] = biological target: Beta-1 adrenergic receptor (Cavia porcellus) (UniProt B0FL73); assay: Ratio of N-tert-butyl-norepinephrine ED50 to compound ED50 for beta-1 adrenergic receptor in guinea pig atria assessed as increase in rate of contraction of spontaneously beating right atria

Beta-1 adrenergic receptor (Cavia porcellus), sequence (B0FL73 1-467): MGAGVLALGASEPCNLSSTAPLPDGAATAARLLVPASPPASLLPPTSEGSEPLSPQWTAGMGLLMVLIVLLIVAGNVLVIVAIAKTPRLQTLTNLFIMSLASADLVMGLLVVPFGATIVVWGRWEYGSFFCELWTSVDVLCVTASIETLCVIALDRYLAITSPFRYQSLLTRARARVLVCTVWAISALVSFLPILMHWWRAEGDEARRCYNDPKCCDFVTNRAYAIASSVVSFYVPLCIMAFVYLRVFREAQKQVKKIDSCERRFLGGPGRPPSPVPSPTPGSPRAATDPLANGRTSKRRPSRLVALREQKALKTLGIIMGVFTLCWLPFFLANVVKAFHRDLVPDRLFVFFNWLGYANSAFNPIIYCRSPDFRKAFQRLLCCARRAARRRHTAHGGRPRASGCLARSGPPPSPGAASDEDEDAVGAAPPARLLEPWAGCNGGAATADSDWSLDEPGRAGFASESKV
Beta-2 adrenergic receptor (Cavia porcellus) (UniProt Q8K4Z4), sequence (Q8K4Z4 whole entry, looked up): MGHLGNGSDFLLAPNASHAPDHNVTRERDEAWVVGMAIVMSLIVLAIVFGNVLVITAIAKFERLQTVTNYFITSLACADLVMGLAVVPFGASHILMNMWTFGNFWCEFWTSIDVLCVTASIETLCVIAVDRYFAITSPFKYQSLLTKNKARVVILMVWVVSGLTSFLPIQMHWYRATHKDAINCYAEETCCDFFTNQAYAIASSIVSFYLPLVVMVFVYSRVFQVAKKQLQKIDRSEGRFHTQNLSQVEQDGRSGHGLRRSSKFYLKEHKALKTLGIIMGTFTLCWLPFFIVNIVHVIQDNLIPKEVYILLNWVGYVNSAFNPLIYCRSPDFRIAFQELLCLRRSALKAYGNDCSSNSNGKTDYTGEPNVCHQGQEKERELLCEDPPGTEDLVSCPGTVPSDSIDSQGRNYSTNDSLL

SMILES: CC(C)(C)NCC(O)COc1ccc(CS(C)(=O)=O)cc1 (centres undefined)
- inhibition [1]: 78%
- ED25 [2]: 4.8 ×10⁻⁵ M
- ED50 [3]: 4.8 ×10⁻⁵ M
- Activity [4]: 0%
- Activity [5]: 0%

SMILES: CC(C)(C)NCC(O)COc1ccc(O)cc1 (centres undefined)
- ED25 [2]: 5 ×10⁻⁸ M
- ED50 [3]: 1.3 ×10⁻⁸ M
- inhibition [6]: Active
- Ratio ED50 (Cavia porcellus): 3.8

SMILES: CC(C)NCC(O)c1ccc(O)cc1 (centres undefined)
- ED25 [2]: 7.7 ×10⁻⁸ M
- ED50 [3]: 1.1 ×10⁻⁷ M
- Ratio ED50 (Cavia porcellus): 0.7

SMILES: CC(C)(C)NCC(O)COc1ccc(O)c(NS(C)(=O)=O)c1 (centres undefined)
- ED25 [2]: 1200 nM
- ED50 [3]: 6.6 nM
- Ratio ED50 (Cavia porcellus): 182
- inhibition [7]: 44%

SMILES: CC(C)NCC(O)c1ccc(O)c(O)c1 (centres undefined)
- ED50 [3]: 7.1 nM

SMILES: CC(C)NCC(O)c1cccc(O)c1 (centres undefined)
- ED25 [2]: 3.7 ×10⁻⁸ M
- ED50 [3]: 4.5 ×10⁻⁸ M
- Ratio ED50 (Cavia porcellus): 0.8

SMILES: CC(C)(C)NC[C@H](O)c1ccc(O)c(O)c1
- ED25 [2]: 7.1 nM
- ED50 [3]: 1.3 nM
- Ratio ED50 (Cavia porcellus): 5.5

SMILES: CC(C)(C)NCC(O)COc1ccc(NS(C)(=O)=O)c(O)c1 (centres undefined)
- Intrinsic activity [8]: 0.8
- ED25 [2]: 9 ×10⁻⁵ M
- ED50 [3]: 3400 nM
- Ratio ED50 (Cavia porcellus): > 27
- Activity [9]: 19%

SMILES: CC(C)(C)NCC(O)COc1cccc(O)c1 (centres undefined)
- ED25 [2]: 5.4 ×10⁻⁷ M
- ED50 [3]: 2.1 ×10⁻⁸ M
- Ratio ED50 (Cavia porcellus): 26
- inhibition [10]: Active

SMILES: CC(C)NCC(O)c1ccc(O)c(NS(C)(=O)=O)c1 (centres undefined)
- ED25 [2]: 7.6 ×10⁻⁸ M
- ED50 [3]: 2.6 ×10⁻⁸ M
- Ratio ED50 (Cavia porcellus): 2.9

SMILES: CC(C)(C)NCC(O)COc1ccc(O)c(O)c1 (centres undefined)
- Ratio ED50 [11]: 22
- ED25 [2]: 1.1 ×10⁻¹¹ M
- ED50 [3]: 3.2 ×10⁻¹⁰ M
- Activity (Canis familiaris [12]): inactive
- Ratio ED50 (Cavia porcellus): 0.034
- Activity (Canis familiaris [13]): inactive
- Activity (Canis familiaris [14]): Active
- Ratio ED50 [15]: 310
- Ratio ED50 [16]: 650
